From US9765075B2, “Substituted bridged urea analogs as sirtuin modulators” (GLAXOSMITHKLINE LLC, priority 2013, dated 2017) come the findings set out here.

SMILES strings stand for the structures.

The test has as its target T1, SIRT1 (Homo sapiens, UniProt Q96EB6).
T1 sequence (Q96EB6 1-747): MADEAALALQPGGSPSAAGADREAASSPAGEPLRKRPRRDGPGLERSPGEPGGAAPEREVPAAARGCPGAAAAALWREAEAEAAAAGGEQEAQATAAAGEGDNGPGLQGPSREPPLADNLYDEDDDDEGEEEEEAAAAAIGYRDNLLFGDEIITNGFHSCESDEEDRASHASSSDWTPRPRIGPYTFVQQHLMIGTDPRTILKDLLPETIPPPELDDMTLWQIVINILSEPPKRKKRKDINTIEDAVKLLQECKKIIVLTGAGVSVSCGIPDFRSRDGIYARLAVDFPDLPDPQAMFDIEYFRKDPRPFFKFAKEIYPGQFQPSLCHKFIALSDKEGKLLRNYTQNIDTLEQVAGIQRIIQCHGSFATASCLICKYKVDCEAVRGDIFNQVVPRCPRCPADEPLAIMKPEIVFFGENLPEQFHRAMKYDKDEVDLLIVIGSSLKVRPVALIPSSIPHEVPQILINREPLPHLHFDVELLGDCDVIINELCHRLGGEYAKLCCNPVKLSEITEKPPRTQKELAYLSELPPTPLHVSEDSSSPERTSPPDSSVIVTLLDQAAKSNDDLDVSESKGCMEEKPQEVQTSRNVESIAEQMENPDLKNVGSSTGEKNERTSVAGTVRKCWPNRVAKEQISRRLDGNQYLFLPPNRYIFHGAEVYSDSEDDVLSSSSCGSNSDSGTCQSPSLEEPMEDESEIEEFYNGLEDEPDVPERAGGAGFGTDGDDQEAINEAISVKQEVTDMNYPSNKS
The test can be described thus: Trp mass spectrometry assay (SIRT1 activation). Type of test: biochemical. Particulars: Trp mass spectrometry assay; for Tryp AVG EC1.5 (μM): EC1.5 = concentration of test compound that results in 150% activation of SIRT1; for Emax: percent maximum fold activation of SIRT1, read-out: Tryp % Fold Act. Summed up: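 Activation is expressed as EC1.5, the concentration raising activity 50% above DMSO control, and as maximum percent of control. Mass-spec readout was OAADPR or deacetylated Trp peptide after a formic-acid-quenched 25-min, 25 °C reaction: 10 nM bacterially expressed His-SIRT1, 0.5 μM acetyl-p53-derived peptide, 120 μM NAD+, pH 7.5 HEPES with […].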

Take `O=C(Nc1cncc(F)c1)N1c2nc(-c3cccc(Cl)c3)ccc2N2CC[C@H]1C2` [Example 119]: the “Tryp AVG EC1.5 (μM)” value is reported as “A (EC1.5<1 μM)” and the Emax was at least 150%.

For the molecule `O=C(Nc1ccnnc1)N1c2nc(-c3cccc(Cl)c3)ccc2N2CC[C@H]1C2` [Example 120], the “Tryp AVG EC1.5 (μM)” value is on record as “A (EC1.5<1 μM)” and the Emax was at least 150%.

Consider `COc1cncc(NC(=O)N2c3nc(-c4cccc(Cl)c4)ccc3N3CC[C@H]2C3)n1` [Example 121], for which the “Tryp AVG EC1.5 (μM)” value is reported as “A (EC1.5<1 μM)” and the Emax was at least 150%.

`O=C(Nc1ccncc1)N1c2nc(-c3cccc(Cl)c3)ccc2N2CC[C@H]1C2` [Example 122]: the “Tryp AVG EC1.5 (μM)” value was “A (EC1.5<1 μM)” and the Emax was at least 150%.

Regarding `O=C(Nc1ccc(F)cn1)N1c2nc(-c3ccccc3C(F)(F)F)ccc2N2CC[C@H]1C2` [Example 123], the “Tryp AVG EC1.5 (μM)” value is reported as “C (EC1.5>25 μM)” and the Emax is below 150%.

As for `COc1cnc(NC(=O)N2c3nc(-c4cccc(Cl)c4)ccc3N3CC[C@H]2C3)cn1` [Example 124], the “Tryp AVG EC1.5 (μM)” value is given as “B (EC1.5 1-25 μM)” and the Emax is at least 150%.

`O=C(Nc1ccc(F)cn1)N1c2nc(-c3ccnc(C(F)(F)F)c3)ccc2N2CC[C@H]1C2` [Example 128]: the “Tryp AVG EC1.5 (μM)” value is given as “A (EC1.5<1 μM)” and the Emax was at least 150%.

As to `O=C(Nc1ccc(F)cn1)N1c2nc(-c3cccc(OC(F)(F)F)c3)ccc2N2CC[C@H]1C2` [Example 129], the “Tryp AVG EC1.5 (μM)” value is listed as “A (EC1.5<1 μM)” and the Emax is at least 150%.

On to `N#Cc1cccc(-c2ccc3c(n2)N(C(=O)Nc2ccc(F)cn2)[C@H]2CCN3C2)c1` [Example 130], for which the “Tryp AVG EC1.5 (μM)” value is on record as “A (EC1.5<1 μM)” and the Emax was at least 150%.

In the case of `O=C(Nc1ccc(F)cn1)N1c2nc(-c3cccc(N4CCCC4)c3)ccc2N2CC[C@H]1C2` [Example 131], the “Tryp AVG EC1.5 (μM)” value is listed as “B (EC1.5 1-25 μM)” and the Emax is at least 150%.

`COc1cc(NC(=O)N2c3nc(-c4cccc(N5CCCC5)c4)ccc3N3CC[C@H]2C3)ncn1` [Example 132]: the “Tryp AVG EC1.5 (μM)” value is “B (EC1.5 1-25 μM)” and the Emax is at least 150%.

For `COc1cc(NC(=O)N2c3nc(-c4ccnc(C(F)(F)F)c4)ccc3N3CC[C@H]2C3)ncn1` [Example 133], the “Tryp AVG EC1.5 (μM)” value is listed as “A (EC1.5<1 μM)” and the Emax was at least 150%.

As to `COc1cc(NC(=O)N2c3nc(-c4ccccc4C(F)(F)F)ccc3N3CC[C@H]2C3)ncn1` [Example 134], the “Tryp AVG EC1.5 (μM)” value was “C (EC1.5>25 μM)” and the Emax is below 150%.

`COc1cc(NC(=O)N2c3nc(-c4cccc(OC(F)(F)F)c4)ccc3N3CC[C@H]2C3)ncn1` [Example 135]: the “Tryp AVG EC1.5 (μM)” value was “A (EC1.5<1 μM)” and the Emax was at least 150%.

With `O=C(Nc1ccccn1)N1c2nc(-c3cccc(N4CCCC4)c3)ccc2N2CC[C@H]1C2` [Example 136], the “Tryp AVG EC1.5 (μM)” value was “A (EC1.5<1 μM)” and the Emax was at least 150%.

`O=C(Nc1ccccn1)N1c2nc(-c3ccccc3C(F)(F)F)ccc2N2CC[C@H]1C2` [Example 137]: the “Tryp AVG EC1.5 (μM)” value is “C (EC1.5>25 μM)” and the Emax is below 150%.

For `O=C(Nc1ccccn1)N1c2nc(-c3cccc(OC(F)(F)F)c3)ccc2N2CC[C@H]1C2` [Example 138], the “Tryp AVG EC1.5 (μM)” value is “A (EC1.5<1 μM)” and the Emax was at least 150%.

Regarding `N#Cc1cccc(-c2ccc3c(n2)N(C(=O)Nc2ccccn2)[C@H]2CCN3C2)c1` [Example 139], the “Tryp AVG EC1.5 (μM)” value is reported as “A (EC1.5<1 μM)” and the Emax is at least 150%.

Consider `COc1cc(NC(=O)N2c3nc(-c4cccc(C#N)c4)ccc3N3CC[C@H]2C3)ncn1` [Example 140], for which the “Tryp AVG EC1.5 (μM)” value is on record as “A (EC1.5<1 μM)” and the Emax is at least 150%.

In the case of `O=C(Nc1ccc(F)cn1)N1c2nc(-c3cccc(Cl)c3)ccc2N2CCC[C@H]1C2` [Example 141], the “Tryp AVG EC1.5 (μM)” value is “A (EC1.5<1 μM)” and the Emax was at least 150%.

For `O=C(Nc1ccccn1)N1c2nc(-c3ccnc(C(F)(F)F)c3)ccc2N2CC[C@H]1C2` [Example 142], the “Tryp AVG EC1.5 (μM)” value is listed as “A (EC1.5<1 μM)” and the Emax was at least 150%.

Turning to `O=C(Nc1cccnn1)N1c2nc(C3CCCC(C(F)(F)F)C3)ccc2N2CC[C@H]1C2` (stereo partly drawn) [Example 143], the “Tryp AVG EC1.5 (μM)” value is listed as “B (EC1.5 1-25 μM)” and the Emax was at least 150%.

On to `O=C(Nc1ccc(F)cn1)N1c2nc(C3CCCC(C(F)(F)F)C3)ccc2N2CC[C@H]1C2` (stereo partly drawn) [Example 144], for which the “Tryp AVG EC1.5 (μM)” value is “B (EC1.5 1-25 μM)” and the Emax was at least 150%.

In the case of `O=C(Nc1cncc(F)c1)N1c2nc(C3CCCC(C(F)(F)F)C3)ccc2N2CC[C@H]1C2` (stereo partly drawn) [Example 145], the “Tryp AVG EC1.5 (μM)” value was “A (EC1.5<1 μM)” and the Emax is at least 150%.

For `O=C(Nc1ccc(F)cn1)N1c2nc(-c3cccc(OC[C@@H](O)CO)c3)ccc2N2CC[C@H]1C2` [Example 146], the “Tryp AVG EC1.5 (μM)” value is “B (EC1.5 1-25 μM)” and the Emax was at least 150%.

Consider `N#Cc1cccc(-c2ccc3c(n2)N(C(=O)Nc2ccncc2F)[C@H]2CCN3C2)c1` [Example 147], for which the “Tryp AVG EC1.5 (μM)” value is given as “B (EC1.5 1-25 μM)” and the Emax was at least 150%.

For `O=C(Nc1ccncc1F)N1c2nc(C3CCCC(C(F)(F)F)C3)ccc2N2CC[C@H]1C2` (stereo partly drawn) [Example 148], the “Tryp AVG EC1.5 (μM)” value was “B (EC1.5 1-25 μM)” and the Emax was at least 150%.

For the molecule `Cc1nc(NC(=O)N2c3nc(C4CCCC(C(F)(F)F)C4)ccc3N3CC[C@H]2C3)sc1C` (stereo partly drawn) [Example 149], the “Tryp AVG EC1.5 (μM)” value is recorded as “B (EC1.5 1-25 μM)” and the Emax is at least 150%.

Consider `O=C(Nc1ccncc1F)N1c2nc(-c3cccc(N4CCCC4)c3)ccc2N2CC[C@H]1C2` [Example 150], for which the “Tryp AVG EC1.5 (μM)” value is recorded as “A (EC1.5<1 μM)” and the Emax was at least 150%.

Consider `O=C(Nc1ccncc1F)N1c2nc(-c3ccnc(C(F)(F)F)c3)ccc2N2CC[C@H]1C2` [Example 151], for which the “Tryp AVG EC1.5 (μM)” value is “A (EC1.5<1 μM)” and the Emax is at least 150%.

Consider `O=C(Nc1ccncc1F)N1c2nc(-c3ccccc3C(F)(F)F)ccc2N2CC[C@H]1C2` [Example 152], for which the “Tryp AVG EC1.5 (μM)” value is “C (EC1.5>25 μM)” and the Emax is at least 150%.

`O=C(Nc1ccncc1F)N1c2nc(-c3cccc(OC(F)(F)F)c3)ccc2N2CC[C@H]1C2` [Example 153]: the “Tryp AVG EC1.5 (μM)” value is “A (EC1.5<1 μM)” and the Emax is at least 150%.

In the case of `O=C(Nc1ccnc(F)c1)N1c2nc(C3CCCC(C(F)(F)F)C3)ccc2N2CC[C@H]1C2` (stereo partly drawn) [Example 154], the “Tryp AVG EC1.5 (μM)” value is “B (EC1.5 1-25 μM)” and the Emax is at least 150%.

Consider `O=C(Nc1ccccn1)N1c2nc(-c3cccc(OC[C@@H](O)CO)c3)ccc2N2CC[C@H]1C2` [Example 155], for which the “Tryp AVG EC1.5 (μM)” value was “B (EC1.5 1-25 μM)” and the Emax is at least 150%.

As to `COc1cc(NC(=O)N2c3nc(-c4cccc(OC[C@@H](O)CO)c4)ccc3N3CC[C@H]2C3)ncn1` [Example 156], the “Tryp AVG EC1.5 (μM)” value is “A (EC1.5<1 μM)” and the Emax was at least 150%.

Regarding `O=C(Nc1ccncc1F)N1c2nc(-c3cccc(OC[C@@H](O)CO)c3)ccc2N2CC[C@H]1C2` [Example 157], the “Tryp AVG EC1.5 (μM)” value is “B (EC1.5 1-25 μM)” and the Emax was at least 150%.
